According to ChEMBL document CHEMBL3259785, “Recent advances in the discovery of small molecules targeting exchange proteins directly activated by cAMP (EPAC)” (J Med Chem, 2014):

Assays:
[1] = target: T1, Rap guanine nucleotide exchange factor 4 (Homo sapiens, UniProt Q8WZA2); test: Displacement of 8-NBD-cAMP from EPAC2 (unknown origin) by fluorescence plate reader analysis
[2] = target: T1, Rap guanine nucleotide exchange factor 4; test: Inhibition of EPAC2 (unknown origin)
[3] = target: T2, Rap guanine nucleotide exchange factor 3 (Homo sapiens, UniProt O95398); test: Inhibition of EPAC1 (unknown origin) assessed as cAMP-mediated GEF activity
T2 sequence (O95398 whole entry): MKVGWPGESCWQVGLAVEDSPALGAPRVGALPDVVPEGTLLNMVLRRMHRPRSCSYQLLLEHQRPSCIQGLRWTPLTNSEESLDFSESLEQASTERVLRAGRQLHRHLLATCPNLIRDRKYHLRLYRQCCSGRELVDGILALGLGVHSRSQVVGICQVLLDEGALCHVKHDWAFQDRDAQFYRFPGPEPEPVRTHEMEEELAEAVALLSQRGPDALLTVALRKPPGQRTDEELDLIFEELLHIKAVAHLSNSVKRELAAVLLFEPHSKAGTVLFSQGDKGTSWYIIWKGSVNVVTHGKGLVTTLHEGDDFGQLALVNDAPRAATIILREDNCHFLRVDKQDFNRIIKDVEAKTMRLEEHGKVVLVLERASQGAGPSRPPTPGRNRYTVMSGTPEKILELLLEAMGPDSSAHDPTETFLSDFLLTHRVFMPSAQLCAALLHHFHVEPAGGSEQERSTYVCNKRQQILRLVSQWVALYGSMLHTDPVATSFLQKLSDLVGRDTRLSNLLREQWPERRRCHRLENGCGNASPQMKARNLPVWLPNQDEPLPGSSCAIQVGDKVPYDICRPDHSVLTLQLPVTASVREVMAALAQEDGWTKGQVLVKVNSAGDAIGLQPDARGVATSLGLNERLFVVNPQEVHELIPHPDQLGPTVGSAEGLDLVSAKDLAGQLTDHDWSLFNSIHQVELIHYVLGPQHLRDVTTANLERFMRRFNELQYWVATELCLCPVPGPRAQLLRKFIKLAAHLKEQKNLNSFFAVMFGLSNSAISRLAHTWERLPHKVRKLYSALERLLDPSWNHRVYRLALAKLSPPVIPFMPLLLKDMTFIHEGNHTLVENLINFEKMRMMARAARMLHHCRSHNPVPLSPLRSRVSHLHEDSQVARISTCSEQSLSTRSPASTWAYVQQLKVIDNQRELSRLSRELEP

T1 sequence (Q8WZA2 whole entry): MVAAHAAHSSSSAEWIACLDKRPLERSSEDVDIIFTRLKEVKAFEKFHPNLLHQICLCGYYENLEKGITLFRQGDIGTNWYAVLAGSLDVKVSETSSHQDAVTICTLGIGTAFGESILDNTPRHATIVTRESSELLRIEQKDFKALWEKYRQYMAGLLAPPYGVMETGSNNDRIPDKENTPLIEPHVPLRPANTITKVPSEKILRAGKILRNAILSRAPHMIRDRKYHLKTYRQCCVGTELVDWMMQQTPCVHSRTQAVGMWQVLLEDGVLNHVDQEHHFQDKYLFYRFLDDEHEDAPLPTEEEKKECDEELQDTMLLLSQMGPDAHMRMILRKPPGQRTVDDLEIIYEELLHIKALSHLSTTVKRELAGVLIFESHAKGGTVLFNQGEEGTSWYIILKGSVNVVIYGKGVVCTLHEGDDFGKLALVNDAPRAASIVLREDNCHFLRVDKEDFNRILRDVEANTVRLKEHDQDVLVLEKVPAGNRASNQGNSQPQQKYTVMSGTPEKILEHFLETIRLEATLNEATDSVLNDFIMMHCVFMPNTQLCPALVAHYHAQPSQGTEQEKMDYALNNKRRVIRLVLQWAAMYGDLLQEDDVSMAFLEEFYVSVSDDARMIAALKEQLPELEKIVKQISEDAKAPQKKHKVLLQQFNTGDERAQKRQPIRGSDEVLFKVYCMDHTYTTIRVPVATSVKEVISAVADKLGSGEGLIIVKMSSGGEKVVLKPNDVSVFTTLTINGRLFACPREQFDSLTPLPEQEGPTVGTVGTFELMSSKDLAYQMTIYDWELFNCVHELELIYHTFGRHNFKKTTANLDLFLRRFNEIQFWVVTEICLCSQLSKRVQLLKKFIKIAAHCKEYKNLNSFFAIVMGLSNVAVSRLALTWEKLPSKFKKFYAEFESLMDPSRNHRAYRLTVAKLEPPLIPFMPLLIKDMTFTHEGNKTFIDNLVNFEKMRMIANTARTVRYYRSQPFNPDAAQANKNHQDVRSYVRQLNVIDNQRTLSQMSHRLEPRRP

SMILES	IC50 [1] [µM]	IC50 [2] [µM]	IC50 [3] [µM]
N#Cc1c(NC(=O)C(F)(F)F)sc2c3c(=O)c4ccccc4c(=O)c=3oc3ccccc3c12	7.9	–	–
O=S(=O)(O)c1ccc2c(/N=N/c3c(O)ccc4ccccc34)cccc2c1	1.7	–	–

Now from value to compound:

IC50 [1] [µM]	IC50 [2] [µM]	IC50 [3] [µM]	SMILES
3.8	–	–	O=C1C=CC2=C(Oc3c(ccc(O)c3O)/C2=C/C=C(O)O)C1=O
–	0.6	–	COCCC[n+]1c(C)csc1Nc1c(C)cc(C)cc1C
7	–	3.2	CC(C)(C)c1cc(C(=O)/C(C#N)=N/Nc2cccc(Cl)c2)no1
